Test in all cases: relative viability (nuclei count vs DMSO), 5 days (fraction); higher = more cells survive
Compound in the test “Dabrafenib + Foretinib”: CC(C)(C)c1nc(-c2cccc(NS(=O)(=O)c3c(F)cccc3F)c2F)c(-c2ccnc(N)n2)s1 [Dabrafenib] + COc1cc2c(Oc3ccc(NC(=O)C4(C(=O)Nc5ccc(F)cc5)CC4)cc3F)ccnc2cc1OCCCN1CCOCC1 [Foretinib] (partner 0.25 µM)
In a few lines: (§1)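 A single step with final 0.05% Triton X-100, 1% formaldehyde and 1 ug/ml Hoechst fixed the cells and stained nuclei 5 days after treatment. Lung cancer cell lines in 1536-well plates had been treated by pin tool the day after seeding with one drug alone or a fixed anchor-drug dose plus five library-drug doses (not always all listed) in √10 steps, and nuclei were counted on 4× images. Relative viability is the ratio of nuclei in treated wells to nuclei in vehicle wells, taken as the median of duplicate plates.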

Compound in the test “Dabrafenib + Lapatinib”: CC(C)(C)c1nc(-c2cccc(NS(=O)(=O)c3c(F)cccc3F)c2F)c(-c2ccnc(N)n2)s1 [Dabrafenib] + CS(=O)(=O)CCNCc1ccc(-c2ccc3ncnc(Nc4ccc(OCc5cccc(F)c5)c(Cl)c4)c3c2)o1 [Lapatinib] (partner 2 µM)
Summed up:
as §1

Compound in the test “VX-702 + OSI-027”: NC(=O)c1ccc(N(C(N)=O)c2c(F)cccc2F)nc1-c1ccc(F)cc1F [VX-702] + COc1cccc2cc(-c3nc([C@H]4CC[C@H](C(=O)O)CC4)n4ncnc(N)c34)[nH]c12 [OSI-027] (partner 0.5 µM)
In a few lines:
as §1

Compound in the test “VX-702 + AZD7762”: NC(=O)c1ccc(N(C(N)=O)c2c(F)cccc2F)nc1-c1ccc(F)cc1F [VX-702] + NC(=O)Nc1cc(-c2cccc(F)c2)sc1C(=O)N[C@H]1CCCNC1 [AZD7762] (partner 0.2 µM)
In a few lines: as §1

NCI-H2347: the relative viability in the test with Dabrafenib + Foretinib (first compound 0.009487 µM) came out at 1.01; with Dabrafenib + Foretinib (first compound 0.3 µM), 0.932; with Dabrafenib + Lapatinib (first compound 0.003 µM) it was 0.631; with Dabrafenib + Lapatinib (first compound 0.009487 µM) it was 1.02; in the test with Dabrafenib + Lapatinib (first compound 0.03 µM), 0.918; with Dabrafenib + Lapatinib (first compound 0.09487 µM) it was 0.897. The relative viability in the test with Dabrafenib + Lapatinib (first compound 0.3 µM) is 0.89; with VX-702 + OSI-027 (first compound 0.02 µM), 0.491; with VX-702 + OSI-027 (first compound 0.6325 µM) it was 0.494; with VX-702 + OSI-027 (first compound 2 µM) it was 0.336; with VX-702 + AZD7762 (first compound 0.02 µM) it was 0.746; in the test with VX-702 + AZD7762 (first compound 0.2 µM), 0.8. Moreover, the relative viability with VX-702 + AZD7762 (first compound 0.6325 µM) stood at 0.787; in the test with VX-702 + AZD7762 (first compound 2 µM) it was 0.699.

Regarding NCI-H1944, the relative viability with Dabrafenib + Foretinib (first compound 0.003 µM) amounted to 0.832; in the test with Dabrafenib + Foretinib (first compound 0.009487 µM), 0.887; with Dabrafenib + Foretinib (first compound 0.03 µM), 0.948; with Dabrafenib + Foretinib (first compound 0.09487 µM), 0.827; in the test with Dabrafenib + Foretinib (first compound 0.3 µM), 0.85; in the test with Dabrafenib + Lapatinib (first compound 0.003 µM), 0.835. In addition, the relative viability in the test with Dabrafenib + Lapatinib (first compound 0.009487 µM) was 0.924; with Dabrafenib + Lapatinib (first compound 0.03 µM), 0.613; in the test with Dabrafenib + Lapatinib (first compound 0.09487 µM), 0.898; in the test with Dabrafenib + Lapatinib (first compound 0.3 µM), 0.788; with VX-702 + OSI-027 (first compound 0.02 µM), 0.396; with VX-702 + OSI-027 (first compound 0.2 µM) it was 0.398. Further, the relative viability in the test with VX-702 + OSI-027 (first compound 0.6325 µM) came out at 0.39; in the test with VX-702 + OSI-027 (first compound 2 µM), 0.206; with VX-702 + AZD7762 (first compound 0.02 µM), 0.565; with VX-702 + AZD7762 (first compound 0.2 µM) it was 0.491; in the test with VX-702 + AZD7762 (first compound 0.6325 µM) it was 0.557; with VX-702 + AZD7762 (first compound 2 µM), 0.358.

With A-427, the relative viability with Dabrafenib + Foretinib (first compound 0.009487 µM) was determined as 1.24; with Dabrafenib + Foretinib (first compound 0.03 µM), 1.14; with Dabrafenib + Foretinib (first compound 0.09487 µM) it was 0.87; with Dabrafenib + Foretinib (first compound 0.3 µM), 1.01; with Dabrafenib + Lapatinib (first compound 0.009487 µM) it was 1.06; in the test with Dabrafenib + Lapatinib (first compound 0.03 µM), 0.878. For the same cell line, the relative viability came out at 0.793 with Dabrafenib + Lapatinib (first compound 0.09487 µM); 1.05 with Dabrafenib + Lapatinib (first compound 0.3 µM); 0.4 with VX-702 + OSI-027 (first compound 0.02 µM); 0.447 with VX-702 + OSI-027 (first compound 0.2 µM); 0.427 with VX-702 + OSI-027 (first compound 0.6325 µM); 0.352 in the test with VX-702 + OSI-027 (first compound 2 µM). Also, the relative viability with VX-702 + AZD7762 (first compound 0.02 µM) was 0.742; with VX-702 + AZD7762 (first compound 0.2 µM) it was 0.699; in the test with VX-702 + AZD7762 (first compound 0.6325 µM), 0.661; with VX-702 + AZD7762 (first compound 2 µM), 0.738.

On to ABC-1, for which the relative viability in the test with Dabrafenib + Foretinib (first compound 0.003 µM) came out at 1.03; with Dabrafenib + Foretinib (first compound 0.009487 µM), 1.09; with Dabrafenib + Foretinib (first compound 0.03 µM), 0.866; with Dabrafenib + Foretinib (first compound 0.09487 µM), 1.02; with Dabrafenib + Foretinib (first compound 0.3 µM) it was 1.26; with Dabrafenib + Lapatinib (first compound 0.003 µM), 1.14. Also, the relative viability with Dabrafenib + Lapatinib (first compound 0.009487 µM) is 1.24; with Dabrafenib + Lapatinib (first compound 0.03 µM) it was 1.3; with Dabrafenib + Lapatinib (first compound 0.09487 µM) it was 1.2; in the test with Dabrafenib + Lapatinib (first compound 0.3 µM), 1.05; with VX-702 + OSI-027 (first compound 0.02 µM) it was 0.47; with VX-702 + OSI-027 (first compound 0.2 µM), 0.578. In addition, the relative viability is 0.509 in the test with VX-702 + OSI-027 (first compound 0.6325 µM); 0.615 with VX-702 + OSI-027 (first compound 2 µM); 0.425 with VX-702 + AZD7762 (first compound 0.02 µM); 0.432 with VX-702 + AZD7762 (first compound 0.6325 µM); 0.897 in the test with VX-702 + AZD7762 (first compound 2 µM).

Regarding NCI-H647, the relative viability was 1.35 with Dabrafenib + Foretinib (first compound 0.003 µM); 1.16 in the test with Dabrafenib + Foretinib (first compound 0.009487 µM); 1.01 in the test with Dabrafenib + Foretinib (first compound 0.03 µM); 1.05 in the test with Dabrafenib + Foretinib (first compound 0.09487 µM); 1.38 in the test with Dabrafenib + Foretinib (first compound 0.3 µM); 1.24 with Dabrafenib + Lapatinib (first compound 0.009487 µM). In addition, the relative viability in the test with Dabrafenib + Lapatinib (first compound 0.03 µM) is 0.812; with Dabrafenib + Lapatinib (first compound 0.09487 µM), 1.01; with Dabrafenib + Lapatinib (first compound 0.3 µM), 0.893; with VX-702 + OSI-027 (first compound 0.02 µM) it was 0.719; with VX-702 + OSI-027 (first compound 0.2 µM), 0.997; with VX-702 + OSI-027 (first compound 0.6325 µM), 0.709. Moreover, the relative viability worked out at 0.662 with VX-702 + OSI-027 (first compound 2 µM); 0.461 in the test with VX-702 + AZD7762 (first compound 0.02 µM); 0.386 in the test with VX-702 + AZD7762 (first compound 0.2 µM); 0.494 with VX-702 + AZD7762 (first compound 0.6325 µM); 0.567 in the test with VX-702 + AZD7762 (first compound 2 µM).

NCI-H1793: the relative viability with Dabrafenib + Foretinib (first compound 0.009487 µM) turned out to be 0.93; with Dabrafenib + Foretinib (first compound 0.3 µM), 0.598; with Dabrafenib + Lapatinib (first compound 0.003 µM), 0.522; in the test with Dabrafenib + Lapatinib (first compound 0.009487 µM) it was 1; in the test with Dabrafenib + Lapatinib (first compound 0.03 µM), 0.598; in the test with Dabrafenib + Lapatinib (first compound 0.09487 µM), 0.741. The relative viability turned out to be 0.612 with Dabrafenib + Lapatinib (first compound 0.3 µM); 0.292 with VX-702 + OSI-027 (first compound 0.02 µM); 0.217 with VX-702 + OSI-027 (first compound 0.2 µM); 0.235 in the test with VX-702 + OSI-027 (first compound 0.6325 µM); 0.218 in the test with VX-702 + OSI-027 (first compound 2 µM); 0.663 with VX-702 + AZD7762 (first compound 0.02 µM). In addition, the relative viability is 0.542 with VX-702 + AZD7762 (first compound 0.6325 µM) and 0.379 with VX-702 + AZD7762 (first compound 2 µM).

Consider LU99A, for which the relative viability in the test with Dabrafenib + Foretinib (first compound 0.003 µM) was 0.942; in the test with Dabrafenib + Foretinib (first compound 0.009487 µM), 0.702; with Dabrafenib + Foretinib (first compound 0.03 µM), 0.715; in the test with Dabrafenib + Foretinib (first compound 0.09487 µM), 0.756; with Dabrafenib + Foretinib (first compound 0.3 µM) it was 0.79; in the test with Dabrafenib + Lapatinib (first compound 0.003 µM) it was 0.974. Further, the relative viability with Dabrafenib + Lapatinib (first compound 0.009487 µM) is 0.971; in the test with Dabrafenib + Lapatinib (first compound 0.03 µM), 0.994; with Dabrafenib + Lapatinib (first compound 0.09487 µM) it was 0.852; in the test with Dabrafenib + Lapatinib (first compound 0.3 µM) it was 0.751; with VX-702 + OSI-027 (first compound 0.02 µM), 0.339; with VX-702 + OSI-027 (first compound 0.2 µM), 0.323. Besides, the relative viability worked out at 0.312 with VX-702 + OSI-027 (first compound 0.6325 µM); 0.283 in the test with VX-702 + OSI-027 (first compound 2 µM); 0.35 with VX-702 + AZD7762 (first compound 0.02 µM); 0.372 in the test with VX-702 + AZD7762 (first compound 0.2 µM); 0.368 with VX-702 + AZD7762 (first compound 0.6325 µM); 0.234 with VX-702 + AZD7762 (first compound 2 µM).

As for BEN, the relative viability with Dabrafenib + Foretinib (first compound 0.009487 µM) is 0.699; with Dabrafenib + Foretinib (first compound 0.09487 µM), 0.569; with Dabrafenib + Foretinib (first compound 0.3 µM) it was 0.713; with Dabrafenib + Lapatinib (first compound 0.009487 µM), 0.805; with Dabrafenib + Lapatinib (first compound 0.09487 µM) it was 0.81; with Dabrafenib + Lapatinib (first compound 0.3 µM) it was 0.841. For the same cell line, the relative viability with VX-702 + OSI-027 (first compound 0.02 µM) is 0.31; with VX-702 + OSI-027 (first compound 0.2 µM), 0.298; with VX-702 + OSI-027 (first compound 0.6325 µM), 0.315; with VX-702 + OSI-027 (first compound 2 µM), 0.328; in the test with VX-702 + AZD7762 (first compound 0.02 µM), 0.841; with VX-702 + AZD7762 (first compound 0.2 µM), 0.637. Also, the relative viability in the test with VX-702 + AZD7762 (first compound 0.6325 µM) was determined as 0.597; with VX-702 + AZD7762 (first compound 2 µM) it was 0.691.

Consider EKVX, for which the relative viability worked out at 0.457 in the test with Dabrafenib + Foretinib (first compound 0.003 µM); 0.603 in the test with Dabrafenib + Foretinib (first compound 0.009487 µM); 0.793 with Dabrafenib + Foretinib (first compound 0.03 µM); 0.886 with Dabrafenib + Foretinib (first compound 0.09487 µM); 0.987 in the test with Dabrafenib + Foretinib (first compound 0.3 µM); 0.172 with Dabrafenib + Lapatinib (first compound 0.003 µM). The relative viability came out at 0.245 with Dabrafenib + Lapatinib (first compound 0.009487 µM); 0.192 with Dabrafenib + Lapatinib (first compound 0.03 µM); 0.203 with Dabrafenib + Lapatinib (first compound 0.09487 µM); 0.321 with Dabrafenib + Lapatinib (first compound 0.3 µM); 0.811 in the test with VX-702 + OSI-027 (first compound 0.02 µM); 0.607 with VX-702 + OSI-027 (first compound 0.2 µM). Besides, the relative viability with VX-702 + OSI-027 (first compound 0.6325 µM) is 0.675; in the test with VX-702 + OSI-027 (first compound 2 µM), 0.668; with VX-702 + AZD7762 (first compound 0.02 µM), 0.726; with VX-702 + AZD7762 (first compound 0.2 µM) it was 0.673; with VX-702 + AZD7762 (first compound 0.6325 µM) it was 0.407; with VX-702 + AZD7762 (first compound 2 µM), 0.776.

The values are drawn from the supplement of paper PMC10307832.
